Experimental data taken from US10363239B2, “Method for inhibiting growth of cancer cells” (Pain Therapeutics, Inc., priority 2013, dated 2019).
Like-named read-outs stand apart in the source and are kept apart here.

Legend:
[1] = biological target: FLNA pentapeptide of SEQ ID NO: 1 (Bn-VAKGL) (Homo sapiens, UniProt P21333); assay: FITC-NLX-based FLNA screening assay (inhibition of FITC-naloxone binding to Bn-VAKGL on streptavidin plates); conditions: 10 nM FITC-NLX
mu opiate receptor (MOR) = assay: MOR agonist activity using [35S]GTPγS binding assay in striatal membranes; type: biochemical; conditions: for % DAMGO (0.1 μM) / % DAMGO (1 μM): relative to DAMGO; for % DAMGO + BFNA: 1 μM compound + β-FNA, relative to DAMGO + BFNA
How it was run: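 Striatal membranes (200 μg) were preincubated 5 min at 30 °C in HEPES pH 7.5 with 100 mM NaCl, 1 mM MgCl2 and 0.5 nM [35S]GTPγS, then 5 min more with 0.1–10 μM compound. Gαo was immunoprecipitated and bound radioactivity counted by scintillation.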

[2] = read-out: Percent Binding Inhibition, FLNA-binding compound 0.01 μM
[3] = read-out: Percent Binding Inhibition, FLNA-binding compound 0.1 μM
[4] = read-out: Percent Binding Inhibition, FLNA-binding compound 1 μM
[5] = Series B, 0.1 μM compound, [35S]GTPγS binding to Gαo, striatal membranes
[6] = Series B, 1 μM compound + 1 μM β-FNA
[7] = Series B, 1 μM compound, [35S]GTPγS binding to Gαo, striatal membranes
[8] = Series C-1, 0.1 μM compound, [35S]GTPγS binding to Gαo, striatal membranes
[9] = Series C-1, 1 μM compound + 1 μM β-FNA
[10] = Series C-1, 1 μM compound, [35S]GTPγS binding to Gαo, striatal membranes

Structure (SMILES) | inhibition at 0.01 µM [1, 2] | inhibition at 0.1 µM [1, 3] | inhibition at 1 µM [1, 4] | % DAMGO (0.1 μM) (mu opiate receptor (MOR); Series B, 0.1 μM compound) | MOR agonist activity, percent [35S]GTPγS binding at the stated compound concentration (mu opiate receptor (MOR); [5]) | MOR agonist activity, percent [35S]GTPγS binding at the stated compound concentration (mu opiate receptor (MOR); [6]) | % DAMGO + BFNA (mu opiate receptor (MOR); Series B) | % DAMGO (1 μM) (mu opiate receptor (MOR); Series B, 1 μM compound) | MOR agonist activity, percent [35S]GTPγS binding at the stated compound concentration (mu opiate receptor (MOR); [7]) | % DAMGO (0.1 μM) (mu opiate receptor (MOR); Series C-1, 0.1 μM compound) | Concentration of FLNA-Binding Compound as Agonist 0.1 μM (mu opiate receptor (MOR); [8]) | Concentration of FLNA-Binding Compound as Agonist 1 μM + BFNA (mu opiate receptor (MOR); [9]) | % DAMGO + BFNA (mu opiate receptor (MOR); Series C-1) | % DAMGO (1 μM) (mu opiate receptor (MOR); Series C-1, 1 μM compound) | Concentration of FLNA-Binding Compound as Agonist 1 μM (mu opiate receptor (MOR); [10]) | also measured
COc1ccc(CCC(=O)CC2c3c(cc4c(c3OC)OCO4)CC[N+]2(C)C)cc1 (stereo not drawn) [Compound B0016] | 27.1% | 33.7% | 41.9% | 99.2% | 167.7% | 72.2% | 109.4% | 79.9% | 213.6% | – | – | – | – | – | – | –
COc1ccc(S(=O)(=O)N2CCOC23CCN(S(=O)(=O)c2ccc(C(C)=O)cc2)CC3)cc1 [Compound C0047] | 30.8% | 35.2% | 41.4% | – | – | – | – | – | – | 98.1% | 142.2% | 80.1% | 182.0% | 88.5% | 206.1% | –
CS(=O)(=O)c1ccc(S(=O)(=O)N2CCC3(CC2)OCCN3S(=O)(=O)c2ccc(S(C)(=O)=O)cc2)cc1 [Compound C0009] | 41.7% | 49% | 53.9% | – | – | – | – | – | – | 85.1% | 146.3% | 26.4% | 41.2% | 92.6% | 256.2% | –
COc1c2c(cc3c1C(CC(=O)c1ccc(O)c(C)c1)[N+](C)(C)CC3)OCO2 (stereo not drawn) [Compound B0002] | 40.2% | 46.4% | 55% | 100.0% | 165.7% | 101.4% | 156.0% | 81.1% | 219.0% | – | – | – | – | – | – | –
O=S(=O)(c1ccc(Br)cc1)N1CCC2(CC1)OCCN2S(=O)(=O)c1ccc(Br)cc1 [Compound C0025] | 37.2% | 41.4% | 45.1% | – | – | – | – | – | – | 122.6% | 235.7% | 80.2% | 182.7% | 117.5% | 320.7% | –
Cc1ccc(S(=O)(=O)N2CCC3(CC2)OCCN3S(=O)(=O)c2ccc(C)cc2)cc1 [Compound C0001] | 34.8% | 42.9% | 51.3% | – | – | – | – | – | – | 75.2% | 129.3% | 33.9% | 52.9% | 66.6% | 184.3% | –
CC(=O)c1ccc(S(=O)(=O)N2CCC3(CC2)OC(CN(C)C)CN3S(=O)(=O)c2ccc(C(C)=O)cc2)cc1 (stereo not drawn) [Compound C0065] | 37.1% | 44% | 47% | – | – | – | – | – | – | 127.0% | 198.3% | 47.7% | 119.5% | 121.3% | 279.5% | –
COc1c2c(cc3c1C(CC(=O)Cc1ccccc1C)N(C)CC3)OCO2 (stereo not drawn) [Compound B0053] | 33.1% | 37.3% | 47.6% | 94.8% | 160.2% | 134.3% | 809.0% | 137.0% | 299.8% | – | – | – | – | – | – | –
CC(=O)N1CCSC12CCN(S(=O)(=O)c1ccc([N+](=O)[O-])cc1)CC2 [Compound C0050] | – | – | – | – | – | – | – | – | – | – | – | – | – | – | – | inhibition at 0.01 µM ([1]; FLNA-binding compound 0.01 μM, read-out: Percent Binding Inhibition): 26.7%; inhibition at 0.1 µM ([1]; FLNA-binding compound 0.1 μM, read-out: Percent Binding Inhibition): 34.5%; inhibition at 1 µM ([1]; FLNA-binding compound 1 μM, read-out: Percent Binding Inhibition): 36.4%; % DAMGO (0.1 μM) (mu opiate receptor (MOR); Series C-2, 0.1 μM compound): 76.1%; MOR agonist activity, percent [35S]GTPγS binding at the stated compound concentration (mu opiate receptor (MOR); Series C-2, 0.1 μM compound, [35S]GTPγS binding to Gαo, striatal membranes): 110.3%; MOR agonist activity, percent [35S]GTPγS binding at the stated compound concentration (mu opiate receptor (MOR); Series C-2, 1 μM compound + 1 μM β-FNA): 59.0%; % DAMGO + BFNA (mu opiate receptor (MOR); Series C-2): 134.1%; % DAMGO (1 μM) (mu opiate receptor (MOR); Series C-2, 1 μM compound): 54.8%; MOR agonist activity, percent [35S]GTPγS binding at the stated compound concentration (mu opiate receptor (MOR); Series C-2, 1 μM compound, [35S]GTPγS binding to Gαo, striatal membranes): 127.6%
